Test system: primary (PDX) human lymphoma model LY2298
Test: In vivo B cell lymphoma xenograft model (PDX)
Excerpt: Anti-tumor activity of cpd. B has been analyzed in murine xenograft models. For that purpose tumor fragments from stock mice inoculated with primary human lymphoma tissue were harvested and used for inoculation into female NOD/SCID mice. Each mouse was inoculated subcutaneously at the right flank with primary (PDX) human lymphoma model LY2298 fragment (P7, 2-4 mm in diameter) for tumor development. The treatment was started when the average tumor size reached about 158 mm^3. Mice were allocated randomly into experimental groups according to their tumor sizes, 10 mice per group. The day was denoted as day 0. Treatments were administrated to tumor-bearing mice from day 1 through day 34. Treatment groups were: vehicle control, cpd. B monotherapy, cpd. A monotherapy and combination of cpd. B and cpd A (Table C). Body weights were determined twice per week. Changes in body weight were depicted as treatment related toxicities (>10% stop treatment, >20% termination). Tumor sizes were measured twice weekly in two dimensions using a caliper, and the volume is expressed in mm^3 using the formula: V = 0.5 a x b^2, where a and b are the long and short diameters of the tumor, respectively. The T/C value is an indicator of tumor response to treatment and commonly used as anti-tumor activity endpoint. T and C are the mean tumor volume of the treated and control groups, respectively. Statistical analysis of difference in tumor volume among the groups was evaluated using one-way ANOVA followed by pairweise comparison procedures (Dunett method). P < 0.05 was considered to be statistically significant.
B in monotherapy and combination therapy with cpd. A during treatment of human LY2298 ABC-DLBCL tumors. Cpd. B has been applied orally upon a dose of 20 mg/kg once daily. Cpd. A was applied intraveneously for 2 days followd by a 5 day treatment break upon a dose of 14 mg/kg. Cpd. […] Cpd. […] TABLE C: Anti-Tumor activity of cpd. B in monotherapy and combination with cpd. A in LY2298 PDX model in NOD/SCID mice.

## COc1c(OCCCN2CCOCC2)ccc2c1N=C(NC(=O)c1cnc(N)nc1)N1CCN=C21.Cl.Cl [cpd. A, 2-amino-N-[7-methoxy-8-(3-morpholin-4-ylpropoxy)-2,3-dihydroimid-azo[1,2-c]quinazolin-5-yl]pyrimidine-5-carboxamide dihydrochloride]
LY2298 PDX in NOD/SCID mice, cpd. B 20 mg/kg QD p.o., cpd. A 14 mg/kg QD 2on/5off i.v., maximum mean loss as percent of starting weight
  Max. body weight loss (%): -5%
LY2298 PDX in NOD/SCID mice, cpd. B 20 mg/kg QD p.o., cpd. A 14 mg/kg QD 2on/5off i.v., mean tumor volume treated/control, * P<0.05 vs. Vehicle
  T/C Volume (at day 20): 0.22*
LY2298 PDX in NOD/SCID mice, cpd. B 20 mg/kg QD p.o., cpd. A 14 mg/kg QD 2on/5off i.v., number of tumors per response class, 10 mice per group
  Response (at termination): 7x PD, 1x SD, 1x PR, 1x CR
Human LY2298 ABC-DLBCL tumors, cpd. B 20 mg/kg once daily orally, cpd. A 14 mg/kg i.v. 2 days on, 5 days break, result in words
  anti-tumor activity: initially a strong anti-tumor activity but after 20 treatment days a clear tumor relapse

— patent publication EP3219329A1, “COMBINATIONS OF COPANLISIB” (Bayer Pharma Aktiengesellschaft, priority 2016, dated 2017)
